Experimental data from US8367632B2, “Methods for reverting methylation by targeting methyltransferases” (Ohio State University Research Foundation, priority 2007, dated 2013).

Assays:
Assay type in all cases: cell-based, human
DNMT3A 3′UTR = assay: Luciferase reporter assay for targeting DNMT 3′UTRs (DNMT3A); conditions: A549 cells, 100 nM precursor miR, 24 h after transfection, with respect to the scrambled oligonucleotide
Excerpt: (§1) To validate these miRNA-target interactions in vivo, the DNMT3A and DNTM3B complementary sites were cloned into the 3′UTR of the firefly luciferase gene and co-transfected with miR-29a, mi-R29b or miR-29c in […] (NSCLC) cells.
(§2) Luciferase reporter assay for targeting DNMT 3′UTRs. For luciferase reporter experiments a DNMT3A 3′UTR segment of 979 bp and a DNMT3B 3′UTR segment of 978 bp were amplified by PCR from human genomic DNA and inserted into the pGL3-control vector with SV40 promoter (Promega), using the XbaI site immediately […] from the stop codon of luciferase. The following sets of primers were used to generate specific fragments:
The amplified 3′UTR of DNMT3A contains an XbaI restriction site in position 583, so we cloned separately the upstream 3′UTR (DNMT3A 3′-UTRup=583 bp) and the downstream fragment (DNMT3A 3′-UTRdown=396 bp) into the pGL3 vectors. […]
A549 cells were co-transfected in 12-well plates by using Lipofectamine 2000 reagent (Invitrogen), according to the manufacturer's protocol, with 0.4 μg of the firefly luciferase report vector and 0.08 μg of the control vector containing Renilla luciferase pRL-TK vector (Promega). […] Firefly and Renilla luciferase activities were measured consecutively by using dual-luciferase assays (Promega), 24 h after the transfection. […]

WWOX mRNA = WWOX mRNA level by qRT-PCR; conditions: A549 cells, 48 h after transfection
Method: (§3) To characterize effects of the methylation changes on gene expression, the mRNA expression levels of two TSGs, FHIT and WWOX, which are frequently silenced by promoter methylation in lung cancer^14 were analyzed.
(§4) Quantitative RT-PCR. Quantitative RT-PCR (qRT-PCR) analysis for miRNA s was performed in triplicate with the TaqMan MicroRNA assays kit (Applied Biosystems, Foster City, Calif.), according to the manufacturer's instructions. 18S RNA was used for normalization; qRT-PCR analyses for other genes of interest were performed as previously described. RNA was reverse transcribed to cDNA with gene-specific primers and IQ SYBR Green Supermix (Biorad, Hercules, Calif.). GAPDH served as normalization control. For the silencing of miR-29s, A549 and H1299 cells were transfected in 6-well plates by using Lipofectamine 2000 reagent (Invitrogen), according to the manufacturer's protocol, with 100 nM (final) of antisense miR-29a, 29b-1, 29c or scrambled antisense miR (Fidelity Systems, Gaithersburg, Md.).

FHIT mRNA = FHIT mRNA level by qRT-PCR; conditions: A549 cells, 48 h after transfection
Method: as §3, §4

DNMT3B 3′UTR = assay: Luciferase reporter assay for targeting DNMT 3′UTRs (DNMT3B); conditions: A549 cells, 100 nM precursor miR, 24 h after transfection, with respect to the scrambled oligonucleotide
Excerpt: as §1
as §2, with “fragments: […]” for “fragments:”
A549 cells were co-transfected in 12-well plates by using Lipofectamine 2000 reagent (Invitrogen), according to the manufacturer's protocol, with 0.4 μg of the firefly luciferase report vector and 0.08 μg of the control vector containing Renilla luciferase pRL-TK vector (Promega). For each well, 100 nM (final) of precursor miR-29a, 29b-1, 29c or scrambled miR (Ambion) was used. Firefly and Renilla luciferase activities were measured consecutively by using dual-luciferase assays (Promega), 24 h after the transfection. The experiments were performed in triplicate.

Row | Substance | luciferase activity (DNMT3A complementary site in 3′UTR of firefly luciferase) (DNMT3A 3′UTR) | increase of WWOX mRNA level (WWOX mRNA) [%] | increase of FHIT expression (mRNA) (FHIT mRNA) [%] | luciferase activity (DNMT3B complementary site in 3′UTR of firefly luciferase) (DNMT3B 3′UTR)
1 | miR-29a: microRNA of the miR-29 family, SEQ ID NO: 1; transfected as precursor miR-29a (Ambion) (UAGCACCAUCUGAAAUCGGUU; listed as RNA, chemistry not given here) | significantly reduced | ~40 | ~65 | significantly reduced
2 | miR-29c: microRNA of the miR-29 family, SEQ ID NO: 3; transfected as precursor miR-29c (Ambion) (UAGCACCAUUUGAAAUCGGU; listed as RNA, chemistry not given here) | significantly reduced | – | ~74 | significantly reduced
